Experiments:
[1] = biological target: T1, glucosylceramide synthase (GCS) (Homo sapiens, UniProt Q16739); assay: GCS enzyme inhibition assay (A549 cell lysate, NBD C6-ceramide, HPLC fluorescence); type: biochemical; conditions: inhibitory activity against GCS, 37° C., 90 minutes
T1 construct: The obtained supernatant was used; host or cells: A549 cells (lysate supernatant after sonication)
T1 sequence (Q16739 1-394): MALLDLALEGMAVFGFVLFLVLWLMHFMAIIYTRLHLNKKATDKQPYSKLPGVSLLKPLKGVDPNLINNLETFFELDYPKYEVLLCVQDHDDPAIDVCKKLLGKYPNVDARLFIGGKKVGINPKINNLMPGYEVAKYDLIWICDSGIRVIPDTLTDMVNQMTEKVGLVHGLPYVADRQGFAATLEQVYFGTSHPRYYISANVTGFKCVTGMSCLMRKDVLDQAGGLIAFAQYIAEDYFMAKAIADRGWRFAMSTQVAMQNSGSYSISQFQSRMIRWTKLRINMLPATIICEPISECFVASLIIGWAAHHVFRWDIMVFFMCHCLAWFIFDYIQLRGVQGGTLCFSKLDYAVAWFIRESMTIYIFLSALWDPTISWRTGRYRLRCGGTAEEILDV
Summary of the method: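 A549 cell lysate (50 mM HEPES pH 7.3) served as GCS source; reactions ran 90 min at 37° C, were stopped with chloroform/methanol and lipids extracted. Activity taken as GlcCer/(Cer+GlcCer) peak area, normalised between DMSO and ibiglustat controls.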

[2] = system: GM1 production in Jurkat cells; assay: cells; type: cell-based; conditions: Homo sapiens, Jurkat, 72 h

In the case of `COc1ncc(-c2ccc3c(c2)OCCC3NC(=O)O[C@@H]2CN3CCC2CC3)cc1C(F)(F)F` (stereo partly drawn) [Example 71, (S)-quinuclidin-3-yl (7-(6-methoxy-5-(trifluoromethyl)pyridin-3-yl)chroman-4-yl)carbamate], the IC50 [1] is reported as 5.3 nM and the IC50 [2] is reported as 38.8 nM.
`CC(C)Oc1ccc(-c2ccc3c(c2)OCCC3NC(=O)O[C@@H]2CN3CCC2CC3)cc1Cl` (stereo partly drawn) [Example 82, (S)-quinuclidin-3-yl (7-(3-chloro-4-isopropoxyphenyl)chroman-4-yl)carbamate] was tested, and the IC50 [1] was 2.86 nM and the IC50 [2] was 7 nM.
With `COc1cccc(-c2ccc3c(c2)OCC(C)(C)C3NC(=O)O[C@@H]2CN3CCC2CC3)c1` (stereo partly drawn) [Example 166, (S)-quinuclidin-3-yl (7-(3-methoxyphenyl)-3,3-dimethylchroman-4-yl)carbamate] the IC50 [1] was 0.31 nM and the IC50 [2] was 0.07 nM.
`COCOc1cccc(-c2ccc3c(c2)SCCC3NC(=O)O[C@@H]2CN3CCC2CC3)c1` (stereo partly drawn) [Example 321, (S)-quinuclidin-3-yl (7-(3-(methoxymethoxy)phenyl)thiochroman-4-yl)carbamate] was tested, and the IC50 [1] was 1 nM and the IC50 [2] was 3.64 nM.
`CC1(C)COc2cc(-c3cccnc3F)ccc2C1NC(=O)O[C@@H]1CN2CCC1CC2` (stereo partly drawn) [Example 222, (S)-quinuclidin-3-yl (7-(2-fluoropyridin-3-yl)-3,3-dimethylchroman-4-yl)carbamate] showed an IC50 [1] of 0.79 nM and an IC50 [2] of 6.59 nM.
`CC(C)Oc1cc(F)cc(-c2ccc3c(c2)OCC(C)(C)C3NC(=O)O[C@@H]2CN3CCC2CC3)c1` (stereo partly drawn) [Example 136, (S)-quinuclidin-3-yl (7-(3-fluoro-5-isopropoxyphenyl)-3,3-dimethylchroman-4-yl)carbamate] was tested, and the IC50 [1] was 0.61 nM and the IC50 [2] was 2.73 nM.
In the case of `CC(C)(C)c1cccc(-c2ccc3c(c2)SCCC3NC(=O)O[C@@H]2CN3CCC2CC3)c1` (stereo partly drawn) [Example 322, (S)-quinuclidin-3-yl (7-(3-(tert-butyl)phenyl)thiochroman-4-yl)carbamate], the IC50 [1] is reported as 1.78 nM and the IC50 [2] is reported as 5.88 nM.
`CSc1ccc(-c2ccc3c(c2)C(NC(=O)O[C@@H]2CN4CCC2CC4)CCO3)cc1` (stereo partly drawn) [Example 97, (S)-quinuclidin-3-yl (6-(4-(methylthio)phenyl)chroman-4-yl)carbamate] showed an IC50 [1] of 11.5 nM and an IC50 [2] of 502 nM.
`Cc1cc(-c2ccc3c(c2)OCCC3NC(=O)O[C@@H]2CN3CCC2CC3)ccc1N1CCOCC1` (stereo partly drawn) [Example 75, (S)-quinuclidin-3-yl (7-(3-methyl-4-morpholinophenyl)chroman-4-yl)carbamate] gave an IC50 [1] of 2.44 nM and an IC50 [2] of 23.6 nM.
In the case of `O=C(NC1CCOc2cc(-c3ccc4nsnc4c3)ccc21)O[C@@H]1CN2CCC1CC2` (stereo partly drawn) [Example 62, (S)-quinuclidin-3-yl (7-(benzo[c][1,2,5]thiadiazol-5-yl)chroman-4-yl)carbamate], the IC50 [1] is reported as 1.03 nM and the IC50 [2] is reported as 21.2 nM.
With `COc1cccc(F)c1-c1ccc2c(c1)OCC(C)(C)C2NC(=O)O[C@@H]1CN2CCC1CC2` (stereo partly drawn) [Example 122, (S)-quinuclidin-3-yl (7-(2-fluoro-6-methoxyphenyl)-3,3-dimethylchroman-4-yl)carbamate] the IC50 [1] was 0.96 nM and the IC50 [2] was 3.75 nM.
With `CC1(C)COc2cc(-c3ccc(C4CC4)cc3)ccc2C1NC(=O)O[C@@H]1CN2CCC1CC2` (stereo partly drawn) [Example 161, (S)-quinuclidin-3-yl (7-(4-cyclopropylphenyl)-3,3-dimethylchroman-4-yl)carbamate] the IC50 [1] was 0.38 nM and the IC50 [2] was 0.18 nM.
`O=C(NC1CCSc2cc(-c3cc(Cl)ccc3Cl)ccc21)O[C@@H]1CN2CCC1CC2` (stereo partly drawn) [Example 323, (S)-quinuclidin-3-yl (7-(2,5-dichlorophenyl)thiochroman-4-yl)carbamate] gave an IC50 [1] of 0.63 nM and an IC50 [2] of 26.3 nM.
For `CC(C)c1cccc(-c2cc3c(cc2F)C(NC(=O)O[C@@H]2CN4CCC2CC4)C(C)(C)CO3)c1` (stereo partly drawn) [Example 339, (S)-quinuclidin-3-yl (6-fluoro-7-(3-isopropylphenyl)-3,3-dimethylchroman-4-yl)carbamate], the IC50 [1] was 0.61 nM and the IC50 [2] was 0.2 nM.
With `CC1(C)COc2cc(-c3cccc(Cl)c3)ccc2C1NC(=O)O[C@@H]1CN2CCC1CC2` (stereo partly drawn) [Example 103, (S)-quinuclidin-3-yl (7-(3-chlorophenyl)-3,3-dimethylchroman-4-yl)carbamate] the IC50 [1] was 1 nM and the IC50 [2] was 1.43 nM.
Compound `CC(C)Oc1ccc(-c2ccc3c(c2)OCC(C)(C)C3NC(=O)O[C@@H]2CN3CCC2CC3)cn1` (stereo partly drawn) [Example 258, (S)-quinuclidin-3-yl (7-(6-isopropoxypyridin-3-yl)-3,3-dimethylchroman-4-yl)carbamate] has an IC50 [1] of 0.45 nM and an IC50 [2] of 1 nM.
Work on `CC1(C)COc2cc(-c3ccc(F)c(F)c3)ccc2C1NC(=O)O[C@@H]1CN2CCC1CC2` (stereo partly drawn) [Example 238, (S)-quinuclidin-3-yl (7-(3,4-difluorophenyl)-3,3-dimethylchroman-4-yl)carbamate] yielded an IC50 [1] of 0.47 nM and an IC50 [2] of 5.9 nM.
`CC1(NC(=O)O[C@@H]2CN3CCC2CC3)CCOc2cc(-c3cccc(OC(F)(F)F)c3)ccc21` (stereo partly drawn) [Example 306, (S)-quinuclidin-3-yl (4-methyl-7-(3-(trifluoromethoxy)phenyl)chroman-4-yl)carbamate] showed an IC50 [1] of 0.5 nM and an IC50 [2] of 3 nM.
`O=C(NC1CCOc2cc(-c3ccc(OC(F)(F)F)cc3)ccc21)O[C@@H]1CN2CCC1CC2` (stereo partly drawn) [Example 16, (S)-quinuclidin-3-yl (7-(4-(trifluoromethoxy)phenyl)chroman-4-yl)carbamate] was tested, and the IC50 [1] was 9.4 nM and the IC50 [2] was 27.8 nM.
Compound `CC(C)c1ccc(-c2ccc3c(c2)OCCC3NC(=O)O[C@@H]2CN3CCC2CC3)cc1` (stereo partly drawn) [Example 24, (S)-quinuclidin-3-yl (7-(4-isopropylphenyl)chroman-4-yl)carbamate] has an IC50 [1] of 4.88 nM and an IC50 [2] of 10.7 nM.

— patent publication US12673944B2, “Compounds having inhibitory activity against glucosylceramide synthase or pharmaceutically acceptable salt thereof, processes for preparing the same, and pharmaceutical compositions comprising the same” (YUHAN CORPORATION, priority 2019, dated 2026)
